# Patent publication US20240285571A1, “METHODS OF TREATING BONE INFECTIONS” (MICROBION CORPORATION, priority 2020, published 2024)
# What was measured:
# [1] = test system: relevant ATCC QC organisms; assay: Broth microdilution MIC, QC (Example 6); assay type: cell-based; conditions: S. aureus ATCC 29213
# Procedure: (§1) Test Compounds: The test agents BisEDT (MB-1-B3; Lot No. ED268-1-11-01), MB-2B, and MB-6 were stored at room temperature, in the dark, until assayed. The solvent and diluent for the test agents was DMSO (Sigma; St. Louis, MO; Lot No. SHBB9319V) and the prepared stock concentration was 6,464 μg/mL (101× the final test concentration).
# (§2) Test compounds were evaluated at a concentration range of 0.06-64 μg/mL. For Gram-negative test isolates, amikacin and ceftazidime (alone and with clavulanate at a fixed concentration of 4 μg/mL) were evaluated over a concentration range of 0.06-64 μg/mL; meropenem and levofloxacin were evaluated over a concentration range of 0.008-8 μg/mL. For the testing of S. aureus, clindamycin, daptomycin, levofloxacin and vancomycin were evaluated at a concentration range of 0.008-8 μg/mL; linezolid was tested from 0.03-32 μg/mL.
# Organisms: The test organisms as shown in Tables 11-15 consisted of clinical isolates from the Micromyx (MMX) repository and reference strains from the American Type Culture Collection (ATCC; Manassas, VA), National Collection of Type Cultures (NCTC; Public Health England, Salisbury, UK), the Network on Antimicrobial Resistance in Staphylococcus aureus (NARSA; BEI Resources, Manassas, VA), and the Centers for Disease Control and Prevention (CDC; Atlanta, GA). The test organisms were maintained frozen at −80° C. Prior to testing, the isolates were cultured on Tryptic Soy Agar with 5% sheep blood (BAP; Becton Dickson [BD]/BBL; Sparks, MD; Lot Nos. 9080650 and 9108563) at 35° C. Relevant ATCC quality control (QC) organisms (Table 16) were included during testing in accordance with CLSI guidelines (3). Further details on the genetic characterization of the isolates where available can be found in Table 17.
# (§3) Media: Cation-adjusted Mueller Hinton broth (CAMHB; BD; Lot No. 8190586) was used as the medium for testing (2, 3). For testing daptomycin, calcium was supplemented with […] Ca^2+, resulting in a final concentration of […] Ca^2+ (2, 3).
# (§4) MIC Assay Procedure: MIC values were determined using a broth microdilution procedure described by CLSI (2, 3). Automated liquid handlers (Multidrop 384, Labsystems, Helsinki, Finland; Biomek 2000 and Biomek F X, Beckman Coulter, Fullerton CA) were used to conduct serial dilutions and liquid transfers.
# (§5) To prepare the drug mother plates, which would provide the serial drug dilutions for the replicate daughter plates, the wells of columns 2 through 12 of standard 96-well microdilution plates (Costar 3795) were filled with 150 μl of the appropriate diluent for each row of drug. The test articles and comparator compounds (300 μl at 101× the highest concentration to be tested) were dispensed into the appropriate wells in column 1. The Biomek 2000 was then used to make 2-fold serial dilutions in the mother plates from column 1 through column 11. The wells of column 12 contained no drug and served as the organism growth control wells for the assay.
# (§6) The daughter plates were loaded with 190 μL per well of RPMI using the Multidrop 384. The test panels were prepared on the Biomek FX instrument which transferred 2 μL of drug solution from each well of a mother plate to the corresponding well of each daughter plate in a single step.
# (§7) A standardized inoculum of each test organism was prepared per CLSI methods to equal a 0.5 McFarland standard, followed by a dilution of 1:20. The plates were then inoculated with 10 μL of the diluted inoculum using the Biomek 2000 from low to high drug concentration resulting in a final concentration of approximately 5×10^5 CFU/mL.
# (§8) Plates were stacked 3-4 high, covered with a lid on the top plate, placed into plastic bags, and incubated at 35° C. for 16 to 20 hr (vancomycin was read for S. aureus after 24 hr incubation time). The MIC was recorded as the lowest concentration of drug that inhibited visible growth of the organism.
# [2] = test system: non-speciated Corynebacterium; assay: MIC of baseline clinical isolates (Example 8); assay type: cell-based; conditions: Corynebacterium non-speciated baseline isolates (N′ = 2), central laboratory, mITT
# Procedure: (§9) Microbiology was assessed on Day 1 and at the time of any subsequent surgical procedure at the index site. Samples were collected from the infected bone site or involved tissue adjacent to any implant(s), swabs of the deep infection site, and the superficial tissue/wound closure/sinus tract site. Isolation and identification of aerobic and anerobic bacteria was conducted at a central microbiology laboratory (IHMA, Schaumburg, IL) and susceptibility of the isolates to MBN-101 (BisEDT) and comparator agents was performed per Clinical and Laboratory Standards Institute (CLSI). Parallel sets of samples were analyzed by the local clinical site laboratory to guide patient antibiotic treatment.
# [3] = test system: Corynebacterium amycolatum; assay: MIC of baseline clinical isolates (Example 8); assay type: cell-based; conditions: Corynebacterium amycolatum baseline isolates (N′ = 1), central laboratory, mITT
# Procedure: as §9
# [4] = test system: Dermabacter hominis; assay: MIC of baseline clinical isolates (Example 8); assay type: cell-based; conditions: Dermabacter hominis baseline isolates (N′ = 1), central laboratory, mITT
# Procedure: as §9
# [5] = test system: Streptococcus oralis; assay: MIC of baseline clinical isolates (Example 8); assay type: cell-based; conditions: Streptococcus oralis baseline isolates (N′ = 1), central laboratory, mITT
# Procedure: as §9
# [6] = test system: Corynebacterium jeikeium; assay: MIC of baseline clinical isolates (Example 8); assay type: cell-based; conditions: Corynebacterium jeikeium baseline isolates (N′ = 2), central laboratory, mITT
# Procedure: as §9
# [7] = test system: Corynebacterium resistens; assay: MIC of baseline clinical isolates (Example 8); assay type: cell-based; conditions: Corynebacterium resistens baseline isolates (N′ = 1), central laboratory, mITT
# Procedure: as §9
# [8] = test system: Staphylococcus haemolyticus; assay: MIC of baseline clinical isolates (Example 8); assay type: cell-based; conditions: Staphylococcus haemolyticus baseline isolates (N′ = 1), central laboratory, mITT
# Procedure: (§10) Microbiology was assessed on Day 1 and at the time of any subsequent surgical procedure at the index site. Samples were collected from the infected bone site or involved tissue adjacent to any implant(s), swabs of the deep infection site, and the superficial tissue/wound closure/sinus tract site. […] Parallel sets of samples were analyzed by the local clinical site laboratory to guide patient antibiotic treatment.
# [9] = test system: Staphylococcus hominis; assay: MIC of baseline clinical isolates (Example 8); assay type: cell-based; conditions: Staphylococcus hominis baseline isolates (N′ = 1), central laboratory, mITT
# Procedure: as §10
# [10] = test system: Staphylococcus arlettae; assay: MIC of baseline clinical isolates (Example 8); assay type: cell-based; conditions: Staphylococcus arlettae baseline isolates (N′ = 1), central laboratory, mITT
# Procedure: as §10
# [11] = test system: Staphylococcus lugdunensis; assay: MIC of baseline clinical isolates (Example 8); assay type: cell-based; conditions: Staphylococcus lugdunensis baseline isolates (N′ = 3), central laboratory, mITT
# Procedure: as §10
# [12] = test system: S. epidermidis; assay: MIC of baseline clinical isolates (Example 8); assay type: cell-based; conditions: Staphylococcus epidermidis baseline isolates (N′ = 5), central laboratory, mITT
# Procedure: as §10
# [13] = test system: Staphylococcus pasteuri; assay: MIC of baseline clinical isolates (Example 8); assay type: cell-based; conditions: Staphylococcus pasteuri baseline isolates (N′ = 1), central laboratory, mITT
# Procedure: as §10
# [14] = test system: S. aureus (MRSA, MSSA); assay: MIC of baseline clinical isolates (Example 8); assay type: cell-based; conditions: Staphylococcus aureus, MRSA baseline isolates (N′ = 4), central laboratory, mITT
# Procedure: as §10
# [15] = test system: relevant ATCC QC organisms; conditions: S. aureus ATCC 29213; CLSI established QC range; cited from earlier work
# [16] = test system: vancomycin-intermediate Staphylococcus aureus; assay: Broth microdilution MIC (Example 6); assay type: cell-based
# Procedure: as §1, §2, §3, §4, §5, §6, §7, §8
smiles,measurement,setting,value
CC(=O)NC[C@H]1CN(c2ccc(N3CCOCC3)c(F)c2)C(=O)O1 [LZD],MIC,[1],4 µg/mL
same,Mean MIC,[2],0.18 µg/mL
same,n (% resistant),[2],0 (0.0) n (%)
same,Mean MIC,[3],0.12 µg/mL
same,n (% resistant),[3],0 (0.0) n (%)
same,Mean MIC,[4],0.50 µg/mL
same,n (% resistant),[4],0 (0.0) n (%)
same,Mean MIC,[5],1.00 µg/mL
same,n (% resistant),[5],0 (0.0) n (%)
same,Mean MIC,[6],0.38 µg/mL
same,n (% resistant),[6],0 (0.0) n (%)
same,Mean MIC,[7],0.25 µg/mL
same,n (% resistant),[7],0 (0.0) n (%)
same,Mean MIC,[8],1.00 µg/mL
same,n (% resistant),[8],0 (0.0) n (%)
same,Mean MIC,[9],0.50 µg/mL
same,n (% resistant),[9],0 (0.0) n (%)
same,Mean MIC,[10],2.00 µg/mL
same,n (% resistant),[10],0 (0.0) n (%)
same,Mean MIC,[11],0.83 µg/mL
same,n (% resistant),[11],0 (0.0) n (%)
same,Mean MIC,[12],0.80 µg/mL
same,n (% resistant),[12],0 (0.0) n (%)
same,Mean MIC,[13],1.00 µg/mL
same,n (% resistant),[13],0 (0.0) n (%)
same,Mean MIC,[14],1.25 µg/mL
same,n (% resistant),[14],0 (0.0) n (%)
same,MIC QC range (in parentheses),[15],(1-4) μg/mL
same,MIC,[16]; S. aureus isolate NRS 1 (hVISA),1 µg/mL
same,MIC,[16]; S. aureus isolate NRS 2,4 µg/mL
same,MIC,[16]; S. aureus isolate NRS 3,1 µg/mL
same,MIC,[16]; S. aureus isolate NRS 4,1 µg/mL
same,MIC,[16]; S. aureus isolate NRS 13,2 µg/mL
same,MIC,[16]; S. aureus isolate NRS 18,1 µg/mL
same,MIC,[16]; S. aureus isolate NRS 22,1 µg/mL
same,MIC,[16]; S. aureus isolate NRS 24 (hVISA),2 µg/mL
same,MIC,[16]; S. aureus isolate NRS 27,2 µg/mL
